The values that follow come from US8993041B2, “Taste masked active pharmaceutical powder compositions and processes for making them” (New Jersey Institute of Technology, priority 2012, dated 2015).

The nature of data set [1]: Angle of repose (AoR/AOR) of powder. The format is physicochemical. The source says: Both of these ibuprofen powders could not be fluidized sufficiently prior to coating, yet both of the coated ibuprofen particles were well fluidized after dry coating.
The operating conditions for coating step 2 may be established by a skilled person giving consideration, for example, to particle agglomeration and providing reduced angle of repose (AOR) values for the coated API powder. The degree of particle agglomeration may be determined by measuring the size of the coated particles in SEM images. The degree of agglomeration may also be estimated using the dispersion pressure titration in the Rodos/Helos system (Rodos and Helos, Sympatec, Lawrenceville, N.J., USA). A discussion of the pressure titration may be found in Han, X., Ghoroi, C., To, D., Chen, Y., Davë, R., “Simultaneous micronization and surface modification for improvement of flow and dissolution of drug particles (2011).” International Journal of Pharmaceutics, vol. 415, pp. 185-195, which is incorporated in its entirety by reference. The AOR may be measured using the procedure of ASTM D6393-99, “Bulk Solids Characterization by CARR Indices.” For example, when the Comil is used, the impeller speed may be optimized to reduce the agglomeration (FIG. 3) as higher impeller speed […] agglomerate size for the silica coated API powders.
M5P hydrophilic silica has a particle size of 20 nm and is manufactured by Cabot

A short description of data set [2]: Flow function coefficient (FFC), shear cell of FT 4 tester. The format is physicochemical.
Setting [3] is: finer ibuprofen powder, median size about 41 micron.

For `CC(C)Cc1ccc(C(C)C(=O)O)cc1` (centres unmarked) [ibuprofen], the AoR result in data set [1] (setting [3]) was “about 58 degrees”; in data set [1] (ibuprofen median particle size about 74 micron, Hosokawa Powder Tester, ASTM D6393-08) it was “about 55 degrees”. In addition, in data set [1] (flow properties of ibuprofen before and after dry coating with silica), the AOR worked out at 55 °. The FFC result is “about 2.8” in data set [2] (setting [3]) and “about 5” in data set [2] (ibuprofen median particle size about 74 micron, pre-consolidation of 3 kPa).
